Measured values taken from EP0500953B1, “ANTINEOPLASTIC EFFECT POTENTIATOR AND ANTINEOPLASTIC AGENT” (TAIHO PHARMACEUTICAL COMPANY LIMITED, priority 1990, dated 1992).

Key:
[1] = test system: mouse colon cancer line COLON 26; experiment: Tumor growth inhibition, subdermally transplanted COLON 26 tumor fragment in mice (Example 1); type: in vivo; settings: Dosage 20.0 mg/kg, orally once a day for 9 consecutive days, tumor weight on day 12
Procedure: (§1) A 2 mm-diameter fragment of mouse colon cancer line COLON 26 was subdermally transplanted at the back of male CDF1 mice. Beginning 24 hours after transplantation of the tumor fragment, a solution or suspension of tegafur-uracil combination drug, 5-fluorouracil and calcium folinate, the amounts of which are indicated below in Table 1, in 0.5% sodium calboxymethylcellulose (CMC) solution was administered orally once a day for 9 consecutive days. On day 12 after transplantation of the tumor fragment, the tumor was enucleated and weighed. From the ratio of the mean tumor weight in each treatment group to that in the control group, the tumor growth inhibition rate was calculated. On the other hand, the body weight of mice on the day of tumor fragment transplantation was subtracted from the body weight of mice exclusive of tumors on day 12 after transplantation and the difference was used as the index of drug-induced systemic toxicity. Furthermore, the stools passed by mice in each treatment group were examined daily and, in accordance with the method described in Japanese Journal of Cancer Research Vol. 81, 188-195 (1990), the stool property was rated on the following scale: -: normal stool (hard pellets with little moisture), ±: loose stool (normal form, moist and soft), +: loose stool (undefinable form, very moist and soft), ++: diarrheal stool (formless, watery).

[2] = Body weight change as index of drug-induced systemic toxicity, COLON 26-bearing mice (Example 1); type: in vivo, male CDF1 mice; settings: Dosage 20.0 mg/kg, orally once a day for 9 days, day 12 vs day of transplantation
Procedure: as §1

[3] = Stool property rating (digestive organ toxicity), COLON 26-bearing mice (Example 1); type: in vivo, male CDF1 mice; design: key: -: normal stool (hard pellets with little moisture); ±: loose stool (normal form, moist and soft); +: loose stool (undefinable form, very moist and soft); ++: diarrheal stool (formless, watery); settings: Dosage 20.0 mg/kg, orally once a day for 9 days
Procedure: as §1

For `O=c1[nH]cc(F)c(=O)[nH]1` [5-Fluorouracil, 5-fluorouracil], which “Tumor Growth inhibition rate (%)” value ([1]; Folinic acid 0 mg/kg) is on record?
Its value is 43%.

And the “Tumor Growth inhibition rate (%)” value ([1]; Folinic acid 100 mg/kg)?
Its value is 56%.

And the “Change in body weight (g)” value ([2]; Folinic acid 0 mg/kg)?
The value was “+1.7 g”.

And the “Change in body weight (g)” value ([2]; Folinic acid 100 mg/kg)?
The value was “+0.1 g”.

What about the Stool property ([3]; Folinic acid 0 mg/kg) of the same compound?
The Stool property was “±”.

And the Stool property ([3]; Folinic acid 100 mg/kg)?
The Stool property was “++”.
